The source of these data is patent publication US20050282743A1, “Molecular interactions in cells” (Arbor Vita Corporation, priority 2001, published 2005).

This test addresses T1, TIP-1 (GST-TIP-1) (Homo sapiens, UniProt O14907, I73S).
T1 construct: made in house; host or cells: E. coli DH5alpha
T1 sequence (O14907 3-123 I73S): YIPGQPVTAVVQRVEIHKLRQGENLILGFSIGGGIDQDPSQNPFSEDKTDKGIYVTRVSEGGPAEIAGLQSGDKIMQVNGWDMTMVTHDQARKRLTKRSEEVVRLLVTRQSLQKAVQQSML
In words: G assay with unlabeled 8 amino acid competitor peptide (Example 4, FIGS. 2B, 2C). It counts as binding. On the procedure: FIGS. 2A, 2B and 2C show binding and competition assays with the PDZ ligands of CD95 (Fas) and Tax for the PDZ domain of TIP-1.
Upon infection, the higher affinity of Tax could preferentially bind TIP-1 protein available in the cell, removing the TIP-1 bound to CD95 (Fas) and thereby rendering the cell less able to undergo apoptosis. In order to test this, competition experiments between Tax and CD95 for TIP-1 binding were performed using the ‘G Assay’, but adding additional unlabeled competitor peptide at step 9 of the ‘G Assay’ presented in EXAMPLE 3 section D.
FIGS. 2B and 2C show the results of these experiments. The graphs show the amount of binding of the biotinylated 20 amino acid peptide in the presence of increasing concentrations of unlabeled 8 amino acid competitor.

`CC[C@H](C)[C@H](NC(=O)[C@H](CCC(N)=O)NC(=O)CCCC[C@@H]1SC[C@@H]2NC(=O)N[C@@H]21)C(=O)N[C@@H](CO)C(=O)N1CCC[C@H]1C(=O)NCC(=O)NCC(=O)N[C@@H](CC(C)C)C(=O)N[C@@H](CCC(=O)O)C(=O)N1CCC[C@H]1C(=O)N1CCC[C@H]1C(=O)N[C@@H](CO)C(=O)N[C@@H](CCC(=O)O)C(=O)N[C@@H](CCCCN)C(=O)N[C@@H](Cc1c[nH]cn1)C(=O)N[C@@H](Cc1ccccc1)C(=O)N[C@@H](CCCNC(=N)N)C(=O)N[C@@H](CCC(=O)O)C(=O)N[C@H](C(=O)N[C@@H](CCC(=O)O)C(=O)N[C@H](C(=O)O)C(C)C)[C@@H](C)O` [Tax]: the “competition for binding to TIP-1 with labeled CD95 (FIG. 2B)” value (unlabeled 8 amino acid Tax competitor at 20, 100, and 500 μM, 20 μM labeled CD95 20-mer) is “able to compete”. The “excess able to compete effectively for TIP-1 binding” value (unlabeled Tax 8-mer versus labeled CD95) was 5 fold.
